The target in this assay is factor Xa (Homo sapiens, UniProt P00742). As to the kind of experiment: Factor Xa inhibitor enzyme assay (purified enzyme, chromogenic peptide-p-nitroanilide substrate; apparent Ki by Cheng-Prusoff). It counts as biochemical.

Structures are written as SMILES. Counter-ions that a name gives are not always drawn.

Chain of factor Xa (P00742 235-488 limits assumed): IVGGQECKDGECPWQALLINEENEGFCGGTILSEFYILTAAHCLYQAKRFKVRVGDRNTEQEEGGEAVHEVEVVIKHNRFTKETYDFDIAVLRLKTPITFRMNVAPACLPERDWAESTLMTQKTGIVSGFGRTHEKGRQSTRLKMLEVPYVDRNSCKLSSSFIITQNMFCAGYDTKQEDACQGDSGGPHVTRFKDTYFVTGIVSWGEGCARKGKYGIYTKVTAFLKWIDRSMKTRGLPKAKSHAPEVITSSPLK
Chain of factor Xa (P00742 41-179 partner limits assumed): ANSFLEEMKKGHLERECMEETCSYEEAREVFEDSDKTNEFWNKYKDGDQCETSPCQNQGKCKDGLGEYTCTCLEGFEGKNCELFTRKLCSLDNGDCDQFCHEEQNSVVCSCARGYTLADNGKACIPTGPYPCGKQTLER
Method: Factor Xa Inhibitor: Enzyme Assay Methods
All enzyme assays are carried out at room temperature in 96-well microtiter plates using a final enzyme concentration of 1 nM. The concentrations of factor Xa and thrombin are determined by active site titration and the concentrations of all other enzymes are based on the protein concentration supplied by the manufacturer. […] Compound dilutions are added to wells containing buffer and enzyme and pre-equilibrated for between 5 and 30 minutes. […] Under these conditions, less than 10% of the substrate is utilized in all assays. […] The apparent Ki values are then determined according to the Cheng-Prusoff equation (IC50=Ki [1+[S]/Km]) assuming competitive inhibition kinetics.

For `N=C(N)c1cccc(CN2CC[C@H](NS(=O)(=O)c3ccc(-c4ccccn4)s3)C2=O)c1` [Example 7, 5-Pyrid-2-ylthiophene-2-sulfonic acid {1-[3-(aminoiminomethyl)benzyl]-2-oxopyrrolidin-3-(S)-yl}amide trifluoroacetate], the Ki was found to be 100 nM.

Values taken from patent publication US5958918A, “Substituted (sulfinic acid, sulfonic acid, sulfonylamino or sulfinylamino) N-[(aminominomethyl)phenylalkyl]-azaheterocyclylamide compounds” (Rhone-Poulenc Rorer Pharmaceuticals Inc., priority 1997, dated 1999).
